Measurements from BindingDB's records for doi:10.1021/acsmedchemlett.0c00405 (University of Oxford, 2020).

Experiment: Modulation of human utrophinA expressed in mouse H2K-mdx utrnA-luc cells assessed as upregulation of utrophin production after 24 hrs by luciferase reporter gene assay

Row | SMILES | EC50 [µM]
1 | CCP(=O)(OC)c1ccc2nc(-c3ccc(C(F)F)cc3)oc2c1 (stereo not given) | 1.9
2 | CCP(=O)(OC)c1ccc2oc(-c3ccc(C(F)F)cc3)nc2c1 (stereo not given) | 0.75
3 | CCP(=O)(OC)c1ccc2nc(-c3cncc(C(F)(F)F)c3)oc2c1 (stereo not given) | > 50
4 | CCP(=O)(OC)c1ccc2oc(-c3cccc(C(F)F)c3)nc2c1 (stereo not given) | 0.89
5 | CCP(=O)(OC)c1ccc2nc(-c3cccc(OC(F)F)c3)oc2c1 (stereo not given) | > 50
6 | CCP(=O)(OC)c1ccc2oc(-c3cncc(C(F)(F)F)c3)nc2c1 (stereo not given) | 4.17
7 | CCP(=O)(OC)c1ccc2oc(-c3cncc(C(F)F)c3)nc2c1 (stereo not given) | 5.9
8 | CCP(=O)(OC)c1ccc2oc(-c3ccccc3C(F)F)nc2c1 (stereo not given) | 1.26

Stronger by EC50, values ahead:

Row | EC50 [µM] | SMILES
9 | 0.677 | CCP(=O)(OC)c1ccc2oc(-c3cccc(OC(F)F)c3)nc2c1 (stereo not given)
10 | 0.58 | CCP(=O)(OC)c1ccc2oc(-c3ccc(F)cc3C(F)F)nc2c1 (stereo not given)
11 | 0.53 | CCP(=O)(OC)c1ccc2oc(-c3ccc4c(c3)OC(F)(F)O4)nc2c1 (stereo not given)
12 | 0.51 | CCP(=O)(OC)c1ccc2oc(-c3ccc(OC)cc3)nc2c1 (stereo not given)
13 | 0.5 | CCP(=O)(OC)c1ccc2nc(-c3ccccc3C(F)F)oc2c1 (stereo not given)
14 | 0.309 | CCP(=O)(OC)c1ccc2oc(-c3ccnc(OC(F)F)c3)nc2c1 (stereo not given)
15 | 0.157 | CCP(=O)(OC)c1ccc2oc(-c3cccc(OC)c3)nc2c1 (stereo not given)
